# Assays:
# PEO4 cells = test: Flow cytometric EdU incorporation (DNA synthesis) assay, PEO4; assay type: cell-based; settings: for time-dependent inhibition of DNA synthesis (EdU-positive cells): 30 μM DB4 or 1 μM triapine, 3, 6, 24 hr
# Method: Cells were plated for 24 hr and then treated with 50 μM compounds for 72 hr. For a positive control, cells were treated with 1 μM triapine for 72 hr. The percentage of cell survival was determined by the MTS cytotoxicity assay. […] Cells were treated with 50 μM compounds or 1 μM triapine for 24 hr. During the last hour, cells were pulse-labeled with EdU, stained with the Click-iT EdU Alexa Fluor 488 Assay Kit, counterstained with 7-AAD, and subsequently analyzed by flow cytometry. EdU-positive cells were gated to determine the percentage of the S phase cell population. The bivariate plots of Alexa Fluor 488 (EdU-positive) and PE-Cy5 (7-AAD-positive) are shown. […] Cells were treated with 50 μM compounds or 1 μM triapine for 24 hr. During the last hour, cells were pulse-labeled with EdU, stained with the Click-iT EdU Alexa Fluor 488 Assay Kit, counterstained with 7-AAD, and subsequently analyzed by flow cytometry. EdU-positive cells were gated to determine the percentage of the S phase cell population. The percentages of DNA synthesis in cells treated with each of 10 compounds and triapine relative to the DMSO-treated control is calculated and shown. FIG. 2D depicts representative results of dNTP measurement on triapine and DB4 in PEO4 cells. Cells were treated with 1 μM triapine or 50 μM DB4 for 24 hr. Cells were extracted with 65% methanol for determination of each of dNTPs expressed as pmole/10^6 cells. Data are means±SD (N=3). *, p<0.05; **, p<0.01; ***, p<0.001, compared with the DMSO-treated control in each dNTP. […] The percentage of cell survival was determined by the MTS cytotoxicity assay. […]
# PEO1 cells were treated with 30 μM DB4 or 1 μM triapine for indicated times, pulsed with EdU for 1 hr and subsequently assayed for DNA synthesis inhibition as described in FIG. 2B. […] Protein was analyzed by western blotting for p-Chk1, p-ATR, p-RPA32, γH2AX, and HSC70. […] DSB end resection is assessed by the level of p-RPA32. […]
# DSB end resection = test: Western blot of DSB end resection with etoposide in PEO4 cells; assay type: cell-based; settings: for Chk1 phosphorylation with/without etoposide: 5 μM etoposide 4 hr; for RPA32 phosphorylation, drug alone: 30 μM DB4, 1 μM triapine or 5 μM etoposide; for etoposide-induced RPA32 phosphorylation: pre-treated 1 hr, then 5 μM etoposide 4 hr
# Method: PEO1 cells were treated with 30 μM DB4 or 1 μM triapine for indicated times, pulsed with EdU for 1 hr and subsequently assayed for DNA synthesis inhibition as described in FIG. 2B. The bivariate plots of Alexa Fluor 488 and PE-Cy5 were gated to determine % S phase cells. […] PEO4 cells were treated with 30 μM DB4 or 1 μM triapine for indicated times, pulsed with EdU for 1 hr and subsequently assayed for DNA synthesis inhibition as described in FIG. 2B. The bivariate plots of Alexa Fluor 488 and PE-Cy5 were gated to determine % S phase cells. […] The bivariate plots of Alexa Fluor 488 and PE-Cy5 shown in FIG. 6A and FIG. 6B were gated to determine % cells in G1, S, and G2/M phases. […] PEO4 cells were treated with 30 μM DB4 or 1 μM triapine for various time periods and subjected to western blot analysis for the levels of cyclin A2, p-CDK1/2, p-H1, p-Chk1, and HSC70. The HSC70 protein level was used as a loading control. Cropped gel images of protein bands are presented. Cyclin A2, p-CDK1/2, and p-H1 bands were from re-probing the same blot. p-Chk1 and HSC70 bands were from re-probing the same duplicated blot. […] The CDK2 activity is expressed by the percentage of the p-HI levels relative to that of the 0 hr control is shown. […] Protein was analyzed by western blotting for p-Chk1, p-ATR, p-RPA32, γH2AX, and HSC70. Cropped gel images of protein bands are presented. All protein bands were from re-probing the same blot. DSB end resection is assessed by the level of p-RPA32.
# To investigate the effects of DB4 on DSB end resection, the level of RPA32 phosphorylation, indicative of CDK2-dependent DSB end resection, was determined.
# The methodology was described previously (Lin Z P et al., 2014, Molecular Cancer Res, 12:381-393; Ratner E S et al., 2016, Br J Cancer, 114:777-786). The anti-HSC70 antibody was purchased from Santa Cruz (Santa Cruz, CA). Anti-cyclin A2, anti-phospho-ATR (Thr-1981), anti-phospho-Chk1 (Ser-345), anti-phospho-CDK1/2 (Tyr-15), and anti-Y-H2AX (Ser-139) antibodies were from Cell Signaling (Danvers, MA). Anti-phospho-RPA32 (S4/S8) and anti-BRCA2 antibodies were from Bethyl Laboratories (Montgomery, TX). Anti-phospho-histone H1 antibody was from Millipore-Sigma (Burlington, MA). To avoid the cross-reaction of secondary antibodies with previously probed primary antibodies, blots were stripped and re-probed with next primary antibodies raised in a different species in an alternate fashion. All images were acquired and processed using the G: BOX gel documentation system and the GeneSnap software (Syngene, Frederick, MD). Brightness and contrast of images were applied equally across the entire gel/blot image and to controls. Images of protein bands were cropped and only brightness-adjusted using the PowerPoint software (Microsoft, Redmond, WA). Quantification of the protein band intensity was performed using the ImageJ software (NIH, Bethesda, MD).
SMILES,time-dependent inhibition of DNA synthesis (EdU-positive cells) (PEO4 cells),"inhibition at 50 µM (PEO4 cells; 50 μM, 24 hr)",ATR phosphorylation (DSB end resection),Chk1 phosphorylation with/without etoposide (DSB end resection),"RPA32 phosphorylation, drug alone (DSB end resection)",etoposide-induced RPA32 phosphorylation (DSB end resection)
"C=CCn1c(SCc2cccc(Cl)c2)nnc1C1CCN(Cc2nc3ccccc3s2)CC1 [DB4, 2-[(4-{4-allyl-5-[(3-chlorobenzyl)thio]-4H-1,2,4-triazol-3-yl}-1-piperidinyl)methyl]-1,3-benzothiazole]",gradual decline in the EdU-positive cell population,> 99%,weakly induce ATR phosphorylation,only synergized with etoposide to induce Chk1 phosphorylation,no effect on basal RPA32 phosphorylation,augmented etoposide-induced RPA32 phosphorylation
"NC(=S)NN=Cc1ncccc1N [triapine, 3-aminopyridine-2-carboxaldehyde-thiosemicarbazone, reference compound]",prompt reduction in EdU-positive cells,,induced ATR and Chk1 phosphorylation independently of etoposide treatment,induced ATR and Chk1 phosphorylation independently of etoposide treatment,induced a minor RPA32 phosphorylation,"blocked phosphorylation of RPA32, induced by etoposide"

# — US20240239786A1, “COMPOSITIONS AND METHODS FOR THE TREATMENT AND PREVENTION OF CANCER” (Yale University, priority 2021, published 2024)
